Measurements reported in ChEMBL document CHEMBL4359816, “Discovery and Optimization of Quinolinone Derivatives as Potent, Selective, and Orally Bioavailable Mutant Isocitrate Dehydrogenase 1 (mIDH1) Inhibitors” (J Med Chem, 2019).
Values after ≈ are worked out from the molar mass of the structure shown.

Experiments:
[1] = Metabolic stability in mouse liver microsomes assessed as compound remaining after 30 mins; type: ADME, Microsome; conditions: read-out: Stability
[2] = Metabolic stability in human liver microsomes assessed as compound remaining after 30 mins; type: ADME, Microsome; conditions: read-out: Stability
[3] = Kinetic solubility of the compound; type: physicochemical; conditions: read-out: Kinetic_solubility
[4] = Octanol/aqueous buffer partition coefficient, log D of the compound at pH 7.4; type: physicochemical
[5] = target: T1, Isocitrate dehydrogenase [NADP] cytoplasmic (Homo sapiens, UniProt O75874, R132C); assay: Inhibition of human Myc-DDK-tagged IDH1 R132C mutant assessed as reduction in NADPH consumption pre-incubated for 15 mins followed by alpha-ketoglutarate substrate and NADPH addition after 45 mins by diaphorase and resazurin dye based assay
T1 sequence (O75874 2-414 R132C limits assumed): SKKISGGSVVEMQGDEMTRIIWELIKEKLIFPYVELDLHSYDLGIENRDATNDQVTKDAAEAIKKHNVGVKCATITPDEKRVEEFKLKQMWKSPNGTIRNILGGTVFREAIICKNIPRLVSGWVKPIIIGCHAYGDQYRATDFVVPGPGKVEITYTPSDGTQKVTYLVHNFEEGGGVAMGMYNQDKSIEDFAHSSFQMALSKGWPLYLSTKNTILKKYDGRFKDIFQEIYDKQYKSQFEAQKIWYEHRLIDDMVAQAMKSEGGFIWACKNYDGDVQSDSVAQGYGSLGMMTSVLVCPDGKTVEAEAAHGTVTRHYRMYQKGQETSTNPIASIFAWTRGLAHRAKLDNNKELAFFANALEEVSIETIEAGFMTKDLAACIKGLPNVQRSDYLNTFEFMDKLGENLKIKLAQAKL

[6] = target: T1, Isocitrate dehydrogenase [NADP] cytoplasmic; assay: Inhibition of IDH1 R132C mutant in human HCT116 cells assessed as reduction in 2-HG levels after 24 hrs by RapidFire high-throughput mass spectrometry assay; type: cell-based
[7] = Metabolic stability in rat liver microsomes assessed as compound remaining after 30 mins; type: ADME, Microsome; conditions: read-out: Stability

| SMILES | remaining at 0.5 h [1] | remaining at 0.5 h [2] | solubility kinetic [3] | logD [4] | IC50 [5] | IC50 [6] | remaining at 0.5 h [7] |
| --- | --- | --- | --- | --- | --- | --- | --- |
| O=c1[nH]c2ccc(Cl)cc2cc1CNc1ccc(-c2csnn2)cc1 | 57% | 82% | – | – | – | – | – |
| COc1cc(NCc2cc3cc(Cl)ccc3n(C)c2=O)ccc1-n1cnnn1 | 22% | 63.7% | < 0.01 µM | – | – | – | – |
| COc1cc(NCc2cc3ccccc3[nH]c2=O)ccc1C#N | 4.6% | 35% | 6.13 µM (≈ 1.87 µg/mL) | – | – | – | – |
| COc1cc(N[C@@H](C)c2cc3cc(Cl)ccc3[nH]c2=O)ncc1C#N | 100% | 100% | 15.6 µM (≈ 5.53 µg/mL) | 3.38 | – | – | – |
| COc1cc(NCc2cc3cc(C)ccc3[nH]c2=O)ccc1C#N | 0.49% | 1.2% | 1.33 µM (≈ 0.425 µg/mL) | – | – | – | – |
| N#Cc1ccc(NCc2cc3cc(Cl)ccc3[nH]c2=O)cc1O | 85% | 75% | 20.9 µM (≈ 6.81 µg/mL) | – | – | – | – |
| Cc1ccnc(NCc2cc3cc(Cl)ccc3[nH]c2=O)c1 | 0.6% | 76% | 0.88 µM (≈ 0.264 µg/mL) | – | – | – | – |
| Cc1nnnn1-c1ccc(NCc2cc3cc(Cl)ccc3[nH]c2=O)cc1 | 85% | 100% | 1.2 µM (≈ 0.44 µg/mL) | – | – | – | – |
| COc1cc(NCc2cc3cc(Cl)c(OCC4CCCCN4C)cc3[nH]c2=O)ccc1C#N (stereo not drawn) | 10.7% | 0% | 1.35 µM (≈ 0.63 µg/mL) | – | 1280 nM | – | – |
| COc1cc(NCc2cc3cc(Cl)cc(OCCN4CCOCC4)c3[nH]c2=O)ccc1C#N | 2.4% | 0% | < 0.1 µM | – | 3710 nM | – | – |
| COc1cc(NCc2cc3cc(Cl)ccc3[nH]c2=O)ccc1S(C)(=O)=O | 81% | 100% | 32.5 µM (≈ 12.8 µg/mL) | – | – | – | – |
| Cc1nc(NC(C)(C)c2cc3cc(Cl)ccc3[nH]c2=O)ccc1C#N | 67% | 81% | < 0.1 µM | – | – | – | – |
| COc1cc(NCc2cc3cc(Cl)c(OCCN(C)C)cc3[nH]c2=O)ccc1C#N | – | – | 1 µM (≈ 0.427 µg/mL) | – | 6250 nM | – | – |
| COc1cc(NCc2cc3cc(Cl)c(OC[C@@H]4CCCN4C)cc3[nH]c2=O)ccc1C#N | 48.8% | 6.3% | 0.72 µM (≈ 0.326 µg/mL) | – | 5870 nM | – | – |
| COc1cc2[nH]c(=O)c(CNc3ccc(C#N)c(OC)c3)cc2cc1Cl | 94.9% | 1% | < 0.1 µM | – | 667 nM | – | – |

Results, then the compound that gave them:

| remaining at 0.5 h [1] | remaining at 0.5 h [2] | solubility kinetic [3] | logD [4] | IC50 [5] | IC50 [6] | remaining at 0.5 h [7] | SMILES |
| --- | --- | --- | --- | --- | --- | --- | --- |
| 71% | 75% | 4.1 µM (≈ 1.45 µg/mL) | 3.67 | 111 nM | 213 nM | – | COc1cc(N[C@@H](C)c2cc3cc(Cl)ccc3[nH]c2=O)ccc1C#N |
| 27.9% | 17.6% | 0.04 µM (≈ 0.0151 µg/mL) | – | – | – | – | COc1cc(NCc2cc3cc(C)c(C)cc3[nH]c2=O)ccc1-n1cnnn1 |
| 59% | 80% | < 0.1 µM | – | – | – | – | COc1cc(NCc2cc3cc(Cl)ccc3[nH]c2=O)cc(OC)c1C#N |
| 89% | 76% | < 0.1 µM | – | – | – | – | COc1cc(NCc2cc3cc(C(F)(F)F)ccc3[nH]c2=O)ccc1C#N |
| 49% | 75% | < 0.1 µM | – | – | – | – | Cc1cc(NCc2cc3cc(Cl)ccc3[nH]c2=O)ccc1C#N |
| – | 93% | 0.4 µM (≈ 0.158 µg/mL) | – | 305 nM | 195 nM | 68% | COc1nc(N[C@@H](C)c2cc3cc(Cl)c(C4CC4)cc3[nH]c2=O)ncc1C#N |
| 89% | 100% | 8 µM (≈ 2.71 µg/mL) | – | – | – | – | Cc1nc(N[C@H](C)c2cc3cc(Cl)ccc3[nH]c2=O)ccc1C#N |
| 10.5% | 21.6% | 0.67 µM (≈ 0.225 µg/mL) | – | – | – | – | COc1ccc2[nH]c(=O)c(CNc3ccc(C#N)c(OC)c3)cc2c1 |
| 75% | 99% | 0.8 µM (≈ 0.26 µg/mL) | – | – | – | – | Cc1cc(NCc2cc3cc(Cl)ccc3[nH]c2=O)ncc1C#N |
| 3.9% | 6% | < 0.1 µM | – | – | – | – | COc1cc(NCc2cc3cc(C(C)(C)C)ccc3[nH]c2=O)ccc1C#N |
| 13.1% | 1.1% | 0.385 µM (≈ 0.181 µg/mL) | – | 932 nM | – | – | COc1cc(NCc2cc3cc(Cl)c(OCCN4CCOCC4)cc3[nH]c2=O)ccc1C#N |
| 17.8% | 9.6% | < 0.01 µM | – | – | – | – | COc1cc(NCc2cc3ccc(C)cc3[nH]c2=O)ccc1-n1cnnn1 |
| 69.4% | 88% | 0.93 µM (≈ 0.324 µg/mL) | – | – | – | – | COc1cc(NCc2cc3ccccc3[nH]c2=O)ccc1-n1cnnn1 |
